Source: publication PMC4947017 (ACS chemical biology, 2016)

How the values were obtained:
[1] = target: T1, neurotensin receptor 1 (NTR1) (Homo sapiens, UniProt P30989); assay: […]-NT radioligand competitive displacement in NTR1-U2OS membranes; format: binding
[2] = target: T1, neurotensin receptor 1 (NTR1); assay: […]-NT radioligand binding to NTR1-U2OS membranes

T1 sequence (P30989 whole entry): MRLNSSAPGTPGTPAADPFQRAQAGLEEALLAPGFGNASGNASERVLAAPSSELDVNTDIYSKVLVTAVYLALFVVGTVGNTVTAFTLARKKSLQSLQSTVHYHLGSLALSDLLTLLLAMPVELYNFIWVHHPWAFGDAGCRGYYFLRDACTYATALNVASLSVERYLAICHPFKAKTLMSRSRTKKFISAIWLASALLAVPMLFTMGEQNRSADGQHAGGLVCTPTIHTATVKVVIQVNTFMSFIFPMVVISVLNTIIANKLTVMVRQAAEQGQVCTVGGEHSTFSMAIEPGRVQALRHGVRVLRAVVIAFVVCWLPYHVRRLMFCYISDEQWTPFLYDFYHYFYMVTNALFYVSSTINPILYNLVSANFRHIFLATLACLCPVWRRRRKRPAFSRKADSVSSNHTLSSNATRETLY

| Structure (SMILES) | IC50 [1] | EC50 [2] |
| --- | --- | --- |
| COc1cccc(OC)c1-c1nc(C(=O)N[C@@H](CC(C)C)C(=O)O)cn1-c1ccnc2cc(Cl)ccc12 [ML301] | -4.0 Log(IC50) |  |
| COc1cc2nc(C3CC3)nc(N3CCN(c4ccccc4OC)CC3)c2cc1OC [ML314] |  | 316 nM |
